Measured values: ChEMBL document CHEMBL1671627, “Increasing trends in antimicrobial resistance among clinically important anaerobes and Bacteroides fragilis isolates causing nosocomial infections: emerging resistance to carbapenems” (2008)

Key:
Bacteroides fragilis [1] = assay: Antibacterial activity against Bacteroides fragilis assessed as susceptible isolates by CLSI agar dilution method; assay type: functional
Bacteroides fragilis [2] = assay: Antibacterial activity against Bacteroides fragilis assessed as resistant isolates by CLSI agar dilution method; assay type: functional
[3] = system: Bacteroides thetaiotaomicron; assay: Antibacterial activity against beta-lactamase producing Bacteroides thetaiotaomicron assessed as susceptible isolates by CLSI agar dilution method; assay type: functional
[4] = system: Bacteroides thetaiotaomicron; assay: Antibacterial activity against beta-lactamase producing Bacteroides thetaiotaomicron assessed as resistant isolates by CLSI agar dilution method; assay type: functional
Phocaeicola vulgatus [5] = assay: Antibacterial activity against beta-lactamase producing Bacteroides vulgatus by CLSI agar dilution method; assay type: functional
Phocaeicola vulgatus [6] = assay: Antibacterial activity against beta-lactamase producing Bacteroides vulgatus assessed as susceptible isolates by CLSI agar dilution method; assay type: functional
Phocaeicola vulgatus [7] = assay: Antibacterial activity against beta-lactamase producing Bacteroides vulgatus assessed as resistant isolates by CLSI agar dilution method; assay type: functional
Bacteroides uniformis [8] = assay: Antibacterial activity against beta-lactamase producing Bacteroides uniformis by CLSI agar dilution method; assay type: functional
Bacteroides uniformis [9] = assay: Antibacterial activity against beta-lactamase producing Bacteroides uniformis assessed as susceptible isolates by CLSI agar dilution method; assay type: functional
Bacteroides uniformis [10] = assay: Antibacterial activity against beta-lactamase producing Bacteroides uniformis assessed as resistant isolates by CLSI agar dilution method; assay type: functional
Bacteroides caccae [11] = assay: Antibacterial activity against beta-lactamase producing Bacteroides caccae by CLSI agar dilution method; assay type: functional
Bacteroides caccae [12] = assay: Antibacterial activity against beta-lactamase producing Bacteroides caccae assessed as susceptible isolates by CLSI agar dilution method; assay type: functional
Bacteroides caccae [13] = assay: Antibacterial activity against beta-lactamase producing Bacteroides caccae assessed as resistant isolates by CLSI agar dilution method; assay type: functional
Fusobacterium varium [14] = assay: Antibacterial activity against Fusobacterium varium by CLSI agar dilution method; assay type: functional
Fusobacterium nucleatum [15] = assay: Antibacterial activity against Fusobacterium nucleatum by CLSI agar dilution method; assay type: functional
Fusobacterium mortiferum [16] = assay: Antibacterial activity against Fusobacterium mortiferum by CLSI agar dilution method; assay type: functional
[17] = system: Fusobacterium necrophorum; assay: Antibacterial activity against Fusobacterium necrophorum by CLSI agar dilution method; assay type: functional
Fusobacterium varium [18] = assay: Antibacterial activity against Fusobacterium varium assessed as susceptible isolates by CLSI agar dilution method; assay type: functional
Fusobacterium nucleatum [19] = assay: Antibacterial activity against Fusobacterium nucleatum assessed as susceptible isolates by CLSI agar dilution method; assay type: functional
Fusobacterium mortiferum [20] = assay: Antibacterial activity against Fusobacterium mortiferum assessed as susceptible isolates by CLSI agar dilution method; assay type: functional
[21] = system: Fusobacterium necrophorum; assay: Antibacterial activity against Fusobacterium necrophorum assessed as susceptible isolates by CLSI agar dilution method; assay type: functional
Fusobacterium varium [22] = assay: Antibacterial activity against Fusobacterium varium assessed as resistant isolates by CLSI agar dilution method; assay type: functional
Fusobacterium nucleatum [23] = assay: Antibacterial activity against Fusobacterium nucleatum assessed as resistant isolates by CLSI agar dilution method; assay type: functional
Fusobacterium mortiferum [24] = assay: Antibacterial activity against Fusobacterium mortiferum assessed as resistant isolates by CLSI agar dilution method; assay type: functional
[25] = system: Fusobacterium necrophorum; assay: Antibacterial activity against Fusobacterium necrophorum assessed as resistant isolates by CLSI agar dilution method; assay type: functional
Prevotella buccae [26] = assay: Antibacterial activity against Prevotella buccae by CLSI agar dilution method; assay type: functional; settings: Segatella buccae
Prevotella bivia [27] = assay: Antibacterial activity against Prevotella bivia by CLSI agar dilution method; assay type: functional
Prevotella intermedia [28] = assay: Antibacterial activity against Prevotella intermedia by CLSI agar dilution method; assay type: functional
[29] = system: Prevotella melaninogenica; assay: Antibacterial activity against Prevotella melaninogenica by CLSI agar dilution method; assay type: functional
Prevotella buccae [30] = assay: Antibacterial activity against Prevotella buccae assessed as susceptible isolates by CLSI agar dilution method; assay type: functional, Segatella buccae
Prevotella bivia [31] = assay: Antibacterial activity against Prevotella bivia assessed as susceptible isolates by CLSI agar dilution method; assay type: functional
Prevotella intermedia [32] = assay: Antibacterial activity against Prevotella intermedia assessed as susceptible isolates by CLSI agar dilution method; assay type: functional
[33] = system: Prevotella melaninogenica; assay: Antibacterial activity against Prevotella melaninogenica assessed as susceptible isolates by CLSI agar dilution method; assay type: functional
Prevotella buccae [34] = assay: Antibacterial activity against Prevotella buccae assessed as resistant isolates by CLSI agar dilution method; assay type: functional, Segatella buccae
Prevotella bivia [35] = assay: Antibacterial activity against Prevotella bivia assessed as resistant isolates by CLSI agar dilution method; assay type: functional
Prevotella intermedia [36] = assay: Antibacterial activity against Prevotella intermedia assessed as resistant isolates by CLSI agar dilution method; assay type: functional
[37] = system: Prevotella melaninogenica; assay: Antibacterial activity against Prevotella melaninogenica assessed as resistant isolates by CLSI agar dilution method; assay type: functional
Veillonella parvula = assay: Antibacterial activity against Veillonella parvula by CLSI agar dilution method; assay type: functional
Clostridium perfringens = assay: microbe, parasite or virus in culture; assay type: functional
[38] = system: Clostridium paraputrificum; assay: Antibacterial activity against beta-lactamase producing Clostridium paraputrificum by CLSI agar dilution method; assay type: functional
Clostridium septicum [39] = assay: Antibacterial activity against beta-lactamase producing Clostridium septicum by CLSI agar dilution method; assay type: functional
Clostridium tertium [40] = assay: Antibacterial activity against beta-lactamase producing Clostridium tertium by CLSI agar dilution method; assay type: functional
[41] = system: Clostridium paraputrificum; assay: Antibacterial activity against beta-lactamase producing Clostridium paraputrificum assessed as susceptible isolates by CLSI agar dilution method; assay type: functional
Clostridium septicum [42] = assay: Antibacterial activity against beta-lactamase producing Clostridium septicum assessed as susceptible isolates by CLSI agar dilution method; assay type: functional
Clostridium tertium [43] = assay: Antibacterial activity against beta-lactamase producing Clostridium tertium assessed as susceptible isolates by CLSI agar dilution method; assay type: functional
Bacteroides fragilis [44] = assay: Antibacterial activity against Bacteroides fragilis by CLSI agar dilution method; assay type: functional
[45] = system: Bacteroides thetaiotaomicron; assay: Antibacterial activity against beta-lactamase producing Bacteroides thetaiotaomicron by CLSI agar dilution method; assay type: functional
[46] = system: Clostridium paraputrificum; assay: Antibacterial activity against beta-lactamase producing Clostridium paraputrificum assessed as resistant isolates by CLSI agar dilution method; assay type: functional
Clostridium septicum [47] = assay: Antibacterial activity against beta-lactamase producing Clostridium septicum assessed as resistant isolates by CLSI agar dilution method; assay type: functional
Clostridium tertium [48] = assay: Antibacterial activity against beta-lactamase producing Clostridium tertium assessed as resistant isolates by CLSI agar dilution method; assay type: functional
[49] = system: Peptostreptococcus anaerobius; assay: Antibacterial activity against beta-lactamase producing Peptostreptococcus anaerobius by CLSI agar dilution method; assay type: functional
[50] = system: Peptostreptococcus anaerobius; assay: Antibacterial activity against beta-lactamase producing Peptostreptococcus anaerobius assessed as susceptible isolates by CLSI agar dilution method; assay type: functional
[51] = system: Peptostreptococcus anaerobius; assay: Antibacterial activity against beta-lactamase producing Peptostreptococcus anaerobius assessed as resistant isolates by CLSI agar dilution method; assay type: functional
Parvimonas micra [52] = assay: Antibacterial activity against beta-lactamase producing Micromonas micros by CLSI agar dilution method; assay type: functional
Parvimonas micra [53] = assay: Antibacterial activity against beta-lactamase producing Micromonas micros assessed as susceptible isolates by CLSI agar dilution method; assay type: functional
Parvimonas micra [54] = assay: Antibacterial activity against beta-lactamase producing Micromonas micros assessed as resistant isolates by CLSI agar dilution method; assay type: functional
[55] = system: Peptoniphilus asaccharolyticus; assay: Antibacterial activity against beta-lactamase producing Peptoniphilus asaccharolyticus by CLSI agar dilution method; assay type: functional
[56] = system: Peptoniphilus asaccharolyticus; assay: Antibacterial activity against beta-lactamase producing Peptoniphilus asaccharolyticus assessed as susceptible isolates by CLSI agar dilution method; assay type: functional
[57] = system: Peptoniphilus asaccharolyticus; assay: Antibacterial activity against beta-lactamase producing Peptoniphilus asaccharolyticus assessed as resistant isolates by CLSI agar dilution method; assay type: functional
Finegoldia magna [58] = assay: Antibacterial activity against beta-lactamase producing Finegoldia magna by CLSI agar dilution method; assay type: functional
Finegoldia magna [59] = assay: Antibacterial activity against beta-lactamase producing Finegoldia magna assessed as susceptible isolates by CLSI agar dilution method; assay type: functional
Finegoldia magna [60] = assay: Antibacterial activity against beta-lactamase producing Finegoldia magna assessed as resistant isolates by CLSI agar dilution method; assay type: functional

O=C(N[C@H](CO)[C@H](O)c1ccc([N+](=O)[O-])cc1)C(Cl)Cl [CHLORAMPHENICOL]
97%: Activity (Bacteroides fragilis [1]) | Activity [3]
8 µg/mL: MIC90 (Phocaeicola vulgatus [5]) | MIC90 (Bacteroides uniformis [8]) | MIC90 (Bacteroides caccae [11]) | MIC90 (Prevotella buccae [26]) | MIC90 (Prevotella bivia [27]) | MIC90 (Prevotella intermedia [28]) | MIC90 [29] | MIC90 (Clostridium perfringens) | MIC90 [38] | MIC90 (Clostridium septicum [39]) | MIC90 (Clostridium tertium [40]) | MIC90 (Bacteroides fragilis [44]) | MIC90 [45]
0%: Activity [4] | Activity (Prevotella buccae [34]) | Activity (Prevotella bivia [35]) | Activity (Prevotella intermedia [36]) | Activity [37] | Activity [46] | Activity (Clostridium septicum [47]) | Activity (Clostridium tertium [48])
2 µg/mL: MIC50 (Fusobacterium varium [14]) | MIC90 (Fusobacterium varium [14]) | MIC50 (Fusobacterium nucleatum [15]) | MIC90 (Fusobacterium nucleatum [15]) | MIC50 (Fusobacterium mortiferum [16]) | MIC90 (Fusobacterium mortiferum [16]) | MIC50 [17] | MIC90 [17]
1 µg/mL: MIC (Veillonella parvula) | MIC [49] | MIC50 [49] | MIC (Parvimonas micra [52]) | MIC50 (Parvimonas micra [52]) | MIC [55] | MIC50 [55] | MIC (Finegoldia magna [58]) | MIC50 (Finegoldia magna [58])
6%: Activity [51] | Activity (Parvimonas micra [54]) | Activity [57] | Activity (Finegoldia magna [60])
4%: Activity (Phocaeicola vulgatus [7]) | Activity (Bacteroides uniformis [10]) | Activity (Bacteroides caccae [13]) | Activity (Fusobacterium varium [22]) | Activity (Fusobacterium nucleatum [23]) | Activity (Fusobacterium mortiferum [24]) | Activity [25]
3%: Activity (Bacteroides fragilis [2])
100%: Activity (Prevotella buccae [30]) | Activity (Prevotella bivia [31]) | Activity (Prevotella intermedia [32]) | Activity [33]
4 µg/mL: MIC50 (Phocaeicola vulgatus [5]) | MIC50 (Bacteroides uniformis [8]) | MIC50 (Bacteroides caccae [11]) | MIC50 (Prevotella buccae [26]) | MIC50 (Prevotella bivia [27]) | MIC50 (Prevotella intermedia [28]) | MIC50 [29] | MIC50 (Clostridium perfringens) | MIC50 [38] | MIC50 (Clostridium septicum [39]) | MIC50 (Clostridium tertium [40]) | MIC50 (Bacteroides fragilis [44]) | MIC [45] | MIC50 [45] | MIC90 [49] | MIC90 (Parvimonas micra [52]) | MIC90 [55] | MIC90 (Finegoldia magna [58])
89%: Activity [41] | Activity (Clostridium septicum [42]) | Activity (Clostridium tertium [43])
94%: Activity [50] | Activity (Parvimonas micra [53]) | Activity [56] | Activity (Finegoldia magna [59])
96%: Activity (Phocaeicola vulgatus [6]) | Activity (Bacteroides uniformis [9]) | Activity (Bacteroides caccae [12]) | Activity (Fusobacterium varium [18]) | Activity (Fusobacterium nucleatum [19]) | Activity (Fusobacterium mortiferum [20]) | Activity [21]
